Assay: xn = mol fraction of the nth substance listed
Details: Gas, rotating-body viscometer for gases

N#N [nitrogen] + O=C=O
Details	viscosity [mPa·s]
323.22 K, 200.9 kPa, x1 = 0.4996	0.0177
323.22 K, 398.6 kPa, x1 = 0.4996	0.01773
323.22 K, 399.4 kPa, x1 = 0.2479	0.01695
323.22 K, 598 kPa, x1 = 0.4996	0.01776
323.22 K, 605 kPa, x1 = 0.2479	0.01698
323.22 K, 798.9 kPa, x1 = 0.2479	0.01701
323.22 K, 804.9 kPa, x1 = 0.4996	0.0178
323.22 K, 996.4 kPa, x1 = 0.4996	0.01783
323.22 K, 1001.8 kPa, x1 = 0.2479	0.01705
323.22 K, 1196.8 kPa, x1 = 0.2479	0.0171
323.22 K, 1198.6 kPa, x1 = 0.4996	0.01787
323.26 K, 100.6 kPa, x1 = 1	0.0189
323.26 K, 101.5 kPa, x1 = 1	0.0189
323.26 K, 200.7 kPa, x1 = 1	0.0189
323.26 K, 400.4 kPa, x1 = 1	0.01893
323.26 K, 600.8 kPa, x1 = 1	0.01896
323.26 K, 800.2 kPa, x1 = 1	0.01896
323.26 K, 1000.6 kPa, x1 = 1	0.01901
323.26 K, 1000.9 kPa, x1 = 1	0.01901
323.27 K, 398.8 kPa, x1 = 1	0.01893
323.27 K, 1501.9 kPa, x1 = 1	0.01907
323.27 K, 1802.1 kPa, x1 = 1	0.01913
373.25 K, 103.3 kPa, x1 = 0.2479	0.01923
373.25 K, 107.8 kPa, x1 = 0.4996	0.01998
373.25 K, 200.1 kPa, x1 = 0.2479	0.01925
373.25 K, 200.7 kPa, x1 = 0.4996	0.02
373.25 K, 391.3 kPa, x1 = 0.4996	0.02002
373.25 K, 400.6 kPa, x1 = 0.2479	0.01928
373.25 K, 598.5 kPa, x1 = 0.4996	0.02005
373.25 K, 601.5 kPa, x1 = 0.2479	0.0193
373.25 K, 799.5 kPa, x1 = 0.4996	0.02008
373.25 K, 802.2 kPa, x1 = 0.2479	0.01933
373.25 K, 998.6 kPa, x1 = 0.4996	0.02011
373.25 K, 999.6 kPa, x1 = 0.2479	0.01937
373.25 K, 1498 kPa, x1 = 0.4996	0.0202
373.25 K, 1498.2 kPa, x1 = 0.2479	0.01947
373.29 K, 100.8 kPa, x1 = 1	0.02102
373.29 K, 201.1 kPa, x1 = 1	0.02104
373.29 K, 401 kPa, x1 = 1	0.02106
373.29 K, 601 kPa, x1 = 1	0.02107
373.29 K, 1000.3 kPa, x1 = 1	0.02111
373.29 K, 1500.6 kPa, x1 = 1	0.02118
373.29 K, 1807.2 kPa, x1 = 1	0.02122
373.57 K, 108.8 kPa, x1 = 0.7498	0.02061
373.57 K, 199.2 kPa, x1 = 0.7498	0.02064
373.57 K, 399.3 kPa, x1 = 0.7498	0.02065
373.57 K, 598.2 kPa, x1 = 0.7498	0.02068
373.57 K, 1002.4 kPa, x1 = 0.7498	0.02073
373.57 K, 1501.2 kPa, x1 = 0.7498	0.02081
373.57 K, 2041.9 kPa, x1 = 0.7498	0.02091
423.27 K, 108.9 kPa, x1 = 0.7498	0.02271
423.27 K, 200.4 kPa, x1 = 0.7498	0.02272
423.27 K, 398.7 kPa, x1 = 0.7498	0.02274
423.27 K, 600.7 kPa, x1 = 0.7498	0.02275
423.27 K, 1000.3 kPa, x1 = 0.7498	0.02281
423.27 K, 1500.1 kPa, x1 = 0.7498	0.02287
423.27 K, 2000 kPa, x1 = 0.7498	0.02293
423.28 K, 107.7 kPa, x1 = 0.2479	0.02144
423.28 K, 109.4 kPa, x1 = 0.4996	0.02216
423.28 K, 199.9 kPa, x1 = 0.4996	0.02216
423.28 K, 400 kPa, x1 = 0.4996	0.02219
423.28 K, 603 kPa, x1 = 0.4996	0.02221
423.28 K, 1001.7 kPa, x1 = 0.4996	0.02226
423.28 K, 1496.5 kPa, x1 = 0.4996	0.02233
423.28 K, 1995 kPa, x1 = 0.4996	0.02242
423.29 K, 201.4 kPa, x1 = 0.2479	0.02145
423.29 K, 405.1 kPa, x1 = 0.2479	0.02148
423.29 K, 601.1 kPa, x1 = 0.2479	0.02151
423.29 K, 1000.7 kPa, x1 = 0.2479	0.02156
423.29 K, 1495.1 kPa, x1 = 0.2479	0.02165
423.29 K, 1998.5 kPa, x1 = 0.2479	0.02175
423.33 K, 100.9 kPa, x1 = 1	0.02302
423.33 K, 200.9 kPa, x1 = 1	0.02303
423.33 K, 400.7 kPa, x1 = 1	0.02306
423.33 K, 600.6 kPa, x1 = 1	0.02308
423.33 K, 1000.5 kPa, x1 = 1	0.02311
423.33 K, 1500.2 kPa, x1 = 1	0.02316
423.33 K, 1799.4 kPa, x1 = 1	0.02319
473.31 K, 108.7 kPa, x1 = 0.7498	0.0247
473.31 K, 199 kPa, x1 = 0.7498	0.02471
473.31 K, 399 kPa, x1 = 0.7498	0.02472
473.31 K, 602.8 kPa, x1 = 0.7498	0.02474
473.31 K, 1003.8 kPa, x1 = 0.7498	0.02477
473.31 K, 1501.4 kPa, x1 = 0.7498	0.02482
473.31 K, 1996.7 kPa, x1 = 0.7498	0.02489
473.32 K, 108.1 kPa, x1 = 0.4996	0.02422
473.32 K, 203.7 kPa, x1 = 0.4996	0.02423
473.32 K, 400.1 kPa, x1 = 0.4996	0.02424
473.32 K, 602.4 kPa, x1 = 0.4996	0.02427
473.32 K, 1006.2 kPa, x1 = 0.4996	0.02431
473.32 K, 1503 kPa, x1 = 0.4996	0.02437
473.32 K, 1991.9 kPa, x1 = 0.4996	0.02444
473.34 K, 109.3 kPa, x1 = 0.2479	0.02355
473.34 K, 203.1 kPa, x1 = 0.2479	0.02356
473.34 K, 395.8 kPa, x1 = 0.2479	0.02358
473.34 K, 597.3 kPa, x1 = 0.2479	0.02359
473.34 K, 1000.4 kPa, x1 = 0.2479	0.02365
473.34 K, 1495.4 kPa, x1 = 0.2479	0.02373
473.34 K, 1998.5 kPa, x1 = 0.2479	0.02382
473.38 K, 100.7 kPa, x1 = 1	0.02494
473.38 K, 200.8 kPa, x1 = 1	0.02495
473.38 K, 398.5 kPa, x1 = 1	0.02496
473.38 K, 600.9 kPa, x1 = 1	0.02497
473.38 K, 1000.7 kPa, x1 = 1	0.02499
473.38 K, 1500.6 kPa, x1 = 1	0.02503
473.38 K, 1799.3 kPa, x1 = 1	0.02505

From the NIST ThermoML archive (doi:10.1016/j.jct.2018.01.015)
